From ChEMBL document CHEMBL1208750, “Synthesis, larvicidal activity, and SAR studies of new benzoylphenylureas containing oxime ether and oxime ester group” (2010)
Values after ≈ are worked out from the molar mass of the structure shown.

What follows are compounds tested on Mythimna separata (assay: Larvicidal activity against Oriental armyworm at 10 mg/L).
Assay type: functional

SMILES	Activity
C/C(=N\OC(C)C)c1ccc(NC(=O)NC(=O)c2c(F)cccc2F)cc1	100%
C/C(=N\OCc1ccccc1)c1ccc(NC(=O)NC(=O)c2c(F)cccc2F)cc1	10%
CC(=O)O/N=C/c1ccc(NC(=O)NC(=O)c2c(F)cccc2F)cc1	0%
O=C(NC(=O)c1c(F)cccc1F)Nc1ccc(/C=N/OC(=O)c2ccccc2)cc1	80%
Cc1cc(C)cc(C(=O)O/N=C/c2ccc(NC(=O)NC(=O)c3c(F)cccc3F)cc2)c1	100%
CC(C)C(=O)O/N=C/c1ccc(NC(=O)NC(=O)c2c(F)cccc2F)cc1	100%
CC(C)(C)O/N=C/Cc1ccc(NC(=O)NC(=O)c2c(F)cccc2F)cc1	80%

The compounds below were run on Mythimna separata (assay: Larvicidal activity against Oriental armyworm at 5 mg/L).
Assay type: functional

SMILES	Activity
C/C(=N\OC(C)C)c1ccc(NC(=O)NC(=O)c2c(F)cccc2F)cc1	100%
O=C(NC(=O)c1c(F)cccc1F)Nc1ccc(/C=N/OC(=O)c2ccccc2)cc1	40%
Cc1cc(C)cc(C(=O)O/N=C/c2ccc(NC(=O)NC(=O)c3c(F)cccc3F)cc2)c1	90%
CC(C)C(=O)O/N=C/c1ccc(NC(=O)NC(=O)c2c(F)cccc2F)cc1	100%

These compounds were tested on Mythimna separata (assay: Larvicidal activity against Oriental armyworm at 2.5 mg/L).
Assay type: functional

SMILES	Activity
C/C(=N\OC(C)C)c1ccc(NC(=O)NC(=O)c2c(F)cccc2F)cc1	65%
O=C(NC(=O)c1c(F)cccc1F)Nc1ccc(/C=N/OC(=O)c2ccccc2)cc1	0%
Cc1cc(C)cc(C(=O)O/N=C/c2ccc(NC(=O)NC(=O)c3c(F)cccc3F)cc2)c1	0%
CC(C)C(=O)O/N=C/c1ccc(NC(=O)NC(=O)c2c(F)cccc2F)cc1	20%
CC(C)(C)O/N=C/c1ccc(NC(=O)NC(=O)c2c(F)cccc2F)c(F)c1	100%

What follows are compounds tested on Mythimna separata (assay: Larvicidal activity against Oriental armyworm at 1 mg/L).
Assay type: functional

SMILES	Activity
C/C(=N\OC(C)C)c1ccc(NC(=O)NC(=O)c2c(F)cccc2F)cc1	10%
CC(C)C(=O)O/N=C/c1ccc(NC(=O)NC(=O)c2c(F)cccc2F)cc1	10%
CC(C)(C)O/N=C/c1ccc(NC(=O)NC(=O)c2c(F)cccc2F)c(F)c1	100%

These compounds were tested on Mythimna separata (assay: Larvicidal activity against Oriental armyworm at 0.5 mg/L).
Assay type: functional

SMILES	Activity
C/C(=N\OC(C)C)c1ccc(NC(=O)NC(=O)c2c(F)cccc2F)cc1	0%
CC(C)C(=O)O/N=C/c1ccc(NC(=O)NC(=O)c2c(F)cccc2F)cc1	0%
CC(C)(C)O/N=C/c1ccc(NC(=O)NC(=O)c2c(F)cccc2F)c(F)c1	90%

The compounds below were run on Mythimna separata (assay: Larvicidal activity against Oriental armyworm at 50 mg/L).
Assay type: functional

SMILES	Activity
C/C(=N\OCc1ccccc1)c1ccc(NC(=O)NC(=O)c2c(F)cccc2F)cc1	90%
CC(=O)O/N=C/c1ccc(NC(=O)NC(=O)c2c(F)cccc2F)cc1	20%
CC(C)(C)O/N=C/c1cccc(NC(=O)NC(=O)c2c(F)cccc2F)c1	100%
CC(C)(C)O/N=C/Cc1ccc(NC(=O)NC(=O)c2c(F)cccc2F)cc1	100%

What follows are compounds tested on Mythimna separata (assay: Larvicidal activity against Oriental armyworm at 25 mg/L).
Assay type: functional

SMILES	Activity
C/C(=N\OCc1ccccc1)c1ccc(NC(=O)NC(=O)c2c(F)cccc2F)cc1	80%
CC(=O)O/N=C/c1ccc(NC(=O)NC(=O)c2c(F)cccc2F)cc1	10%
O=C(NC(=O)c1c(F)cccc1F)Nc1ccc(/C=N/OC(=O)c2ccccc2)cc1	90%
Cc1cc(C)cc(C(=O)O/N=C/c2ccc(NC(=O)NC(=O)c3c(F)cccc3F)cc2)c1	100%
CC(C)(C)O/N=C/c1cccc(NC(=O)NC(=O)c2c(F)cccc2F)c1	90%
CC(C)(C)O/N=C/Cc1ccc(NC(=O)NC(=O)c2c(F)cccc2F)cc1	100%

What follows are compounds tested on Mythimna separata (assay: Larvicidal activity against Oriental armyworm at 0.25 mg/L).
Assay type: functional

SMILES	Activity
CC(C)(C)O/N=C/c1ccc(NC(=O)NC(=O)c2c(F)cccc2F)c(F)c1	10%

What follows are compounds tested on Mythimna separata (assay: Larvicidal activity against Oriental armyworm at 200 mg/L).
Assay type: functional

SMILES	Activity
N#C/C(=N\OCc1ccccc1)c1ccc(NC(=O)NC(=O)c2c(F)cccc2F)cc1	0%
CC(=O)O/N=C/c1ccc(NC(=O)NC(=O)c2c(F)cccc2F)cc1	100%
CC(C)(C)O/N=C/c1ccccc1NC(=O)NC(=O)c1c(F)cccc1F	0%

Each compound was assayed on Mythimna separata (assay: Larvicidal activity against Oriental armyworm at 100 mg/L).
Assay type: functional

SMILES	Activity
CC(=O)O/N=C/c1ccc(NC(=O)NC(=O)c2c(F)cccc2F)cc1	50%
CC(C)(C)O/N=C/c1cccc(NC(=O)NC(=O)c2c(F)cccc2F)c1	100%

These compounds were tested on Aedes aegypti (assay: Larvicidal activity against mosquito larvae at 0.5 mg/L).
Assay type: functional

SMILES	Activity
C/C(=N\OC(C)C)c1ccc(NC(=O)NC(=O)c2c(F)cccc2F)cc1	100%
N#C/C(=N\OCc1ccccc1)c1ccc(NC(=O)NC(=O)c2c(F)cccc2F)cc1	100%
CC(=O)O/N=C/c1ccc(NC(=O)NC(=O)c2c(F)cccc2F)cc1	20%
O=C(NC(=O)c1c(F)cccc1F)Nc1ccc(/C=N/OC(=O)c2ccccc2)cc1	100%
Cc1cc(C)cc(C(=O)O/N=C/c2ccc(NC(=O)NC(=O)c3c(F)cccc3F)cc2)c1	100%
CC(C)C(=O)O/N=C/c1ccc(NC(=O)NC(=O)c2c(F)cccc2F)cc1	100%

The compounds below were run on Aedes aegypti (assay: Larvicidal activity against mosquito larvae at 0.25 mg/L).
Assay type: functional

SMILES	Activity
C/C(=N\OC(C)C)c1ccc(NC(=O)NC(=O)c2c(F)cccc2F)cc1	100%
N#C/C(=N\OCc1ccccc1)c1ccc(NC(=O)NC(=O)c2c(F)cccc2F)cc1	100%
CC(=O)O/N=C/c1ccc(NC(=O)NC(=O)c2c(F)cccc2F)cc1	0%
O=C(NC(=O)c1c(F)cccc1F)Nc1ccc(/C=N/OC(=O)c2ccccc2)cc1	80%
Cc1cc(C)cc(C(=O)O/N=C/c2ccc(NC(=O)NC(=O)c3c(F)cccc3F)cc2)c1	100%
CC(C)C(=O)O/N=C/c1ccc(NC(=O)NC(=O)c2c(F)cccc2F)cc1	100%

Each compound was assayed on Aedes aegypti (assay: Larvicidal activity against mosquito larvae at 0.1 mg/L).
Assay type: functional

SMILES	Activity
C/C(=N\OC(C)C)c1ccc(NC(=O)NC(=O)c2c(F)cccc2F)cc1	90%
N#C/C(=N\OCc1ccccc1)c1ccc(NC(=O)NC(=O)c2c(F)cccc2F)cc1	90%
O=C(NC(=O)c1c(F)cccc1F)Nc1ccc(/C=N/OC(=O)c2ccccc2)cc1	30%
Cc1cc(C)cc(C(=O)O/N=C/c2ccc(NC(=O)NC(=O)c3c(F)cccc3F)cc2)c1	90%
CC(C)C(=O)O/N=C/c1ccc(NC(=O)NC(=O)c2c(F)cccc2F)cc1	70%

What follows are compounds tested on Aedes aegypti (assay: Larvicidal activity against mosquito larvae at 0.05 mg/L).
Assay type: functional

SMILES	Activity
C/C(=N\OC(C)C)c1ccc(NC(=O)NC(=O)c2c(F)cccc2F)cc1	90%
N#C/C(=N\OCc1ccccc1)c1ccc(NC(=O)NC(=O)c2c(F)cccc2F)cc1	0%
Cc1cc(C)cc(C(=O)O/N=C/c2ccc(NC(=O)NC(=O)c3c(F)cccc3F)cc2)c1	90%
CC(C)C(=O)O/N=C/c1ccc(NC(=O)NC(=O)c2c(F)cccc2F)cc1	10%

These compounds were tested on Aedes aegypti (assay: Larvicidal activity against mosquito larvae at 0.025 mg/L).
Assay type: functional

SMILES	Activity
C/C(=N\OC(C)C)c1ccc(NC(=O)NC(=O)c2c(F)cccc2F)cc1	30%
Cc1cc(C)cc(C(=O)O/N=C/c2ccc(NC(=O)NC(=O)c3c(F)cccc3F)cc2)c1	10%
CC(C)C(=O)O/N=C/c1ccc(NC(=O)NC(=O)c2c(F)cccc2F)cc1	0%

The compounds below were run on Aedes aegypti (assay: Larvicidal activity against mosquito larvae at 2 mg/L).
Assay type: functional

SMILES	Activity
C/C(=N\OCc1ccccc1)c1ccc(NC(=O)NC(=O)c2c(F)cccc2F)cc1	0%
CC(=O)O/N=C/c1ccc(NC(=O)NC(=O)c2c(F)cccc2F)cc1	100%

These compounds were tested on Aedes aegypti (assay: Larvicidal activity against mosquito larvae at 1 mg/L).
Assay type: functional

SMILES	Activity
C/C(=N\OCc1ccccc1)c1ccc(NC(=O)NC(=O)c2c(F)cccc2F)cc1	0%
CC(=O)O/N=C/c1ccc(NC(=O)NC(=O)c2c(F)cccc2F)cc1	100%
O=C(NC(=O)c1c(F)cccc1F)Nc1ccc(/C=N/OC(=O)c2ccccc2)cc1	100%

What follows are compounds tested on Spodoptera exigua (assay: Larvicidal activity against beet armyworm).
Assay type: functional

SMILES	LC50
CC(C)(C)O/N=C/c1ccc(NC(=O)NC(=O)c2c(F)cccc2F)c(F)c1	3.37 µg/mL (≈ 8.57 µM)

Each compound was assayed on Plutella xylostella (assay: Larvicidal activity against diamondback moth).
Assay type: functional

SMILES	LC50
CC(C)(C)O/N=C/c1ccc(NC(=O)NC(=O)c2c(F)cccc2F)c(F)c1	0.57 µg/mL (≈ 1.45 µM)

These compounds were tested on Ostrinia nubilalis (assay: Larvicidal activity against corn Borer).
Assay type: functional

SMILES	LC50
CC(C)(C)O/N=C/c1ccc(NC(=O)NC(=O)c2c(F)cccc2F)c(F)c1	10 µg/mL (≈ 25.5 µM)
